In US20060111289A1, “Compositions and methods of using Alpha-fetoprotein growth inhibitory peptides” (Serometrix, LLC,, priority 2004, published 2006):
Where a SMILES comes first, the peptide text is derived from it.

Legend:
MCF-7 cells [1] = test: Estrogen-dependent MCF-7 foci formation assay; type: cell-based, human; design: % Inhibition Of Activity: MCF-7 foci formation: concentration or dose not given beside the values
Text: Mizejewski et al., “Alpha-fetoprotein derived synthetic peptides: assay of an estrogen-modifying regulatory segment” Mol Cell Endocrinol 118:15-23 (1996). The P149 peptide inhibited the formation of tumor cell foci formed as a result of the accumulation of breast cancer cells which clump together due to loss of contact inhibition.

[2] = tested on: immature mouse uterine growth; test: E2-activated immature mouse uterine growth assay; type: in vivo; design: % Inhibition Of Activity: Uterine Growth: concentration or dose not given beside the values; settings: for Inhibition in the mouse uterine assay: linear versus cyclic configuration
Description: FIG. 3 presents exemplary data showing the growth suppressive activities of the oligomeric forms of P149, cyclic versus linear, are depicted in various in vitro and in vivo models. Biological activity was determined by three growth-dependent bioassays, namely; • Panel-A and A1) an immature rodent uterine bioassay; • Panel-B and B 1) an in vitro MCF-7 foci assay; • Panel-C and C1) an in vitro tumor cell cytostatic assessment. […] See text for details. Scrambled peptide=P327. […]

MCF-7 cells [3] = test: MCF-7 cell proliferation assay (8 days, sulforhodamine B); type: cell-based, human
Description: MCF-7 cells were seeded at 25,000 cells/well in 48 well microtiter plates, and incubated for eight days in the various test and control reagents. […] Tumor cells were fixed after 8 days and analyzed for proliferation using the standard sulfarhodamine B staining procedure.

[4] = tested on: three human cancer cell lines (breast, prostate, or kidney); test: Sulforhodamine cytostatic 6-day assay, cyclic versus linear peptide; type: cell-based; settings: linear versus cyclic configuration
Description: FIG. 3 presents exemplary data showing the growth suppressive activities of the oligomeric forms of P149, cyclic versus linear, are depicted in various in vitro and in vivo models. Biological activity was determined by three growth-dependent bioassays, namely; • Panel-A and A1) an immature rodent uterine bioassay; • Panel-B and B 1) an in vitro MCF-7 foci assay; • Panel-C and C1) an in vitro tumor cell cytostatic assessment. […] See text for details. Scrambled peptide=P327.
GIP is a major participant in tumor cell surface interactions. GIP is a potent suppressor of tumor proliferation in both rodent and human cell models. GIP's biological activity is dependent on its oligomeric state, specifically its trimer (linear) versus monomer (cyclic) configuration. Biological activity was determined by three growth-dependent bioassays, namely, i) an immature rodent uterine assay; ii) an in vitro MCF-7 foci assay; and iii) an in vitro cytostatic assessment. […]
The cyclic form of GIP constitutes a disulfide-bridged monomer in solution, whereas GIP in the linear configuration is known to exist as an oligomeric trimer. […] Using three different human cancer cell lines (breast, prostate, or kidney) it was readily demonstrable that the monomeric cyclic form of the peptide produced 80-90% growth inhibition over a range of 10^−5 M to 10^−7 M when the sulforhodamine cytostatic 6-day assay was employed. […]

[5] = tested on: MCF-7 and 6WI-1 tumor cells; test: Tumor cell adhesion to ECM proteins in microtiter plates; type: cell-based, human, murine
Description: FIG. 8 presents exemplary data showing the inhibition of P149 in the cellular adhesion of cancer cells to extracellular matrix (ECM) proteins for both human MCF-7 breast cancer cells and for murine 6WI-1 ascites-adapted mammary tumor cells. The cellular adhesion assay was performed in 96-well microtiter plates (Nunc Company, Denmark, catalog #263339) and the wells were pre-coated with 100 microliters of each of the above-mentioned ECM proteins for 24 hours as previously determined. After adding tumor cells, the plates were then incubated at 37° C. for various times; while 6WI-1 cells usually required only 2-4 hours incubation for adhesion; MCF-7 cells required 24 hours for attachment following trypsinization. For both cell lines, the cell culture media contained 5% calf serum to ensure cell attachment. The plates were washed twice with Hank's Saline, fixed in 0.5 mL of 37% formaldehyde, stained with crystal violet and read at […] on a microplate reader. Inset: Using a CyQUANT® stain kit, (Hoechst Corp., Germany) the plates were first exposed to a freeze/thaw cycle at −70° C. for 24 hours and 37° C. for 10 minutes. CyQUANT® buffer solution (150 microliters) was added to each well, and the cell adhesion was measured by fluorescence spectroscopy and quantitated using an ImageQuant® plate scanner (Fluorimager 595, Molecular Dynamics, Sunnyvale, Calif.).
This attachment of GIP was a slightly weaker adhesion matrix than was gelatin, chondroitin sulfate, and poly-lysine which approximated 30-35%. Using P149, the optimal amount of peptide required to inhibit tumor cell adhesion was determined by absorbing soluble peptide (1.0 pg to 100 μg) to the walls of microtiter plates. A constant number of MCF-7 tumor cells (i.e., for example, 1×10^5) were then added to the microtiter well and adhesion quantitated by fluorescence. […] The quantitation of MCF-7 and 6WI-1 cell adhesion in the presence of peptide versus peptide-free media was then determined on ECM-coated microtiter plates using 3 μg GIP/well as a competitive inhibitor. The P149 peptide was added to the wells immediately after the cells were dispensed and then the mixture was incubated as described. The AFP peptide was capable of cell adhesion inhibition in most of the ECM proteins in both tumor cell lines. Inhibition of mouse and human tumor cell adhesion was somewhat equivalent using collagen IV, fibrinogen, fibronectin, and thrombospondin. […] Thus, the GIP was found capable of eliciting different attachment inhibitions dependent on the type of ECM protein coating the wall of the microtiter plate and also the tumor cell type involved.

Estrogen fetotoxicity = test: Estrogen fetotoxicity; design: concentration or dose not given beside the values; settings: in vivo

Compound	Inhibition in the MCF-7 foci-assay (MCF-7 cells [1]; linear versus cyclic configuration)	Inhibition in the mouse uterine assay [2]	Inhibition in the mouse uterine assay ([2]; listed as cyclic peptide)	Growth suppression of MCF-7 cells (MCF-7 cells [3]; 8 days, 10^−8 to 10^−12 M)	Most effective concentration for growth suppression (MCF-7 cells [3]; culture day-8, tested 10^−5 to 10^−14 M)	Inhibition in the in vitro cytostatic assay [4]	% Inhibition Of Activity: MCF-7 foci formation (MCF-7 cells [1])	% Inhibition Of Activity: Cell Adhesion [5]	% Inhibition Of Activity: Uterine Growth ([2]; mouse, in vivo)	% Inhibition Of Activity: Estrogen Fetotoxicty (Estrogen fetotoxicity)
CC[C@H](C)[C@H](NC(=O)[C@@H]1CSSC[C@H](NC(=O)[C@H](C)NC(=O)[C@H](CC(C)C)NC(=O)[C@H](CC(C)C)NC(=O)[C@H](CCCCN)NC(=O)[C@H](CC(=O)O)NC(=O)[C@H](CCC(=O)O)NC(=O)[C@H](CO)NC(=O)[C@@H](N)CC(C)C)C(=O)NCC(=O)N[C@@H](CCC(=O)O)C(=O)NCC(=O)N[C@@H](C)C(=O)N[C@@H](C)C(=O)N[C@@H](CC(=O)O)C(=O)N[C@@H]([C@@H](C)CC)C(=O)N[C@@H]([C@@H](C)CC)C(=O)N[C@@H]([C@@H](C)CC)C(=O)NCC(=O)N[C@@H](Cc2c[nH]cn2)C(=O)N[C@@H](CC(C)C)C(=O)N1)C(=O)N[C@@H](CCCNC(=N)N)C(=O)N[C@@H](Cc1c[nH]cn1)C(=O)N[C@@H](CCC(=O)O)C(=O)N[C@@H](CCSC)C(=O)N[C@H](C(=O)N1CCC[C@H]1C(=O)N[C@H](C(=O)N[C@@H](CC(N)=O)C(=O)N1CCC[C@H]1C(=O)NCC(=O)N[C@H](C(=O)O)C(C)C)C(C)C)[C@@H](C)O [Cyclic GIP] (HELM PEPTIDE1{L.S.E.D.K.L.L.A.C.G.E.G.A.A.D.I.I.I.G.H.L.C.I.R.H.E.M.T.P.V.N.P.G.V}$PEPTIDE1,PEPTIDE1,9:R3-22:R3$$$V2.0; N-terminus and C-terminus assumed)	20-25%	20-25%	only marginally inhibitory	80 to 90%	10^−8 M	80-90%				
KDFIHKQGVALQTMKQELINLVKELVKPQIEAVADFSGLL (listed as Homo sapiens) [P192, reference compound]							0%	0%	0%	0%
